Experimental data: article PMC2697958 (Molecular microbiology, 2009)

Target: Aurora kinase-1 (TbAUK1) (Trypanosoma brucei, UniProt Q384J7)
Experiment: in vitro kinase assay of immunoprecipitated kinase
Format: biochemical

In the case of CCS(=O)(=O)Nc1ccc2c(c1)/C(=C(/Nc1ccc(CN3CCCCC3)cc1)c1ccccc1)C(=O)N2 [Hesperadin], the IC50 is reported as 40 nM.
